Format in all cases: biochemical
In one test the target is TYK2 (Homo sapiens (Human), UniProt P29597). As to the kind of experiment: JAK Caliper Enzyme Assay at 1 mM ATP, TYK2. Put shortly: (§1)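 Inhibition is measured as reduced phosphorylation of a synthetic peptide by the recombinant human kinase domain at 1 mM ATP. Conditions give 20–30% conversion at room temperature before EDTA quench, and on-chip separation of labelled substrate and product yields percent conversion for dose–response plotting.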

The next test concerns the target JAK3 (Homo sapiens (Human), UniProt P52333). As to the kind of experiment: JAK Caliper Enzyme Assay at 1 mM ATP, JAK3. A digest of the protocol: (§2)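 Recombinant human kinase domains phosphorylate a fluorescent synthetic peptide at 1 mM ATP, room temperature, with enzyme and time tuned for 20-30% conversion; EDTA-stopped. Product/substrate separated by microfluidic mobility shift; percent effect versus DMSO and positive controls fitted to IC50 (nM).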

The next test concerns the target JAK1 (Homo sapiens (Human), UniProt P23458). As to the kind of experiment: JAK Caliper Enzyme Assay at 1 mM ATP, JAK1. A digest of the protocol:
as §2

In the next test the target is JAK2 (Homo sapiens (Human), UniProt O60674). Kind of test: JAK Caliper Enzyme Assay at 1 mM ATP, JAK2. A digest of the protocol:
as §1

The source of these data is US11254668B2, “Pyrazolo[1,5-A]pyrazin-4-yl and related derivatives” (Pfizer Inc., priority 2017, dated 2022).

Chain of JAK3 (P52333 822-1111): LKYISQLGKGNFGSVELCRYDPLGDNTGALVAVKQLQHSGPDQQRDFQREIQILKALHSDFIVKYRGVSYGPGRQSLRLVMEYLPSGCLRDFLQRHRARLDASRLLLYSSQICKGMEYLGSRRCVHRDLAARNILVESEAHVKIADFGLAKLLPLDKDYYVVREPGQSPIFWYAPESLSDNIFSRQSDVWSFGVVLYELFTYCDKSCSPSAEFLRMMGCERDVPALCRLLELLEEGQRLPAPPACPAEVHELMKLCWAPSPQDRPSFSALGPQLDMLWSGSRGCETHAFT
Chain of JAK2 (O60674 849-1124): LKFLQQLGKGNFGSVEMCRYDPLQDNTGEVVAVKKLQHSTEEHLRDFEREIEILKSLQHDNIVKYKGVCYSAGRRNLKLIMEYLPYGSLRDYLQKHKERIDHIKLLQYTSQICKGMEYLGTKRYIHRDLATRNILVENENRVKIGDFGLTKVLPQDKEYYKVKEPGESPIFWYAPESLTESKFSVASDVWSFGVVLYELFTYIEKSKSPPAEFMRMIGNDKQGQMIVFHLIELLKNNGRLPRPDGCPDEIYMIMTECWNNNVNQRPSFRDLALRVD
Chain of TYK2 (P29597 897-1176): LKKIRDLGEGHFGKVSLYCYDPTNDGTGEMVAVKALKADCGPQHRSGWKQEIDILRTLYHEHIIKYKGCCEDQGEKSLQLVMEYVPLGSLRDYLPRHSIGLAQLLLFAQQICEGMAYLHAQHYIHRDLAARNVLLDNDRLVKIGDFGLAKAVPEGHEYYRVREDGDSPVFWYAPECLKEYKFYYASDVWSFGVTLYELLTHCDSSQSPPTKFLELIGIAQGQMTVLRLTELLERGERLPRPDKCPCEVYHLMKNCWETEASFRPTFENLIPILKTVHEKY
Chain of JAK1 (P23458 875-1153): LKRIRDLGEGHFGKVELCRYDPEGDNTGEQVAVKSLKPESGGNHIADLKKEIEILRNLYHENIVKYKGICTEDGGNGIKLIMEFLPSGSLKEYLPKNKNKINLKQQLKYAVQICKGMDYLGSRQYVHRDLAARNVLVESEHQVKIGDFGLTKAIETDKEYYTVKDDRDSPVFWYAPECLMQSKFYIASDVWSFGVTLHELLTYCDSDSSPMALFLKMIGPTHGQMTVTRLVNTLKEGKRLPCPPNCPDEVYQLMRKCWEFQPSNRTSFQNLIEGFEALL

One may read the IC50 as the concentration at which inhibition is half-maximal. For the compound `Cc1ccc(-c2cc3ncccc3c(-c3ccn(C4(CC#N)CN(S(C)(=O)=O)C4)n3)n2)cn1` [Example 175, [3-{3-[7-(6-methylpyridin-3-yl)-1,6-naphthyridin-5-yl]-1H-pyrazol-1-yl}-1-(methylsulfonyl)azetidin-3-yl]acetonitrile], the concentration for half-maximal inhibition (IC50) at TYK2 was 135 nM; on JAK3, above 10000 nM; at JAK1, 5740 nM; on JAK2 it was 1180 nM.
In the case of `Cc1cc(-c2cc3ncccc3c(-c3ccn(C4(CC#N)CN(CC(F)(F)F)C4)n3)n2)ccn1` [Example 176, [3-{3-[7-(2-methylpyridin-4-yl)-1,6-naphthyridin-5-yl]-1H-pyrazol-1-yl}-1-(2,2,2-trifluoroethyl)azetidin-3-yl]acetonitrile], the 50% inhibitory concentration (IC50) was 71 nM at TYK2, above 10000 nM at JAK3, 966 nM on JAK1 and 634 nM at JAK2.
As for `Cc1ccc(-c2cc3ncccc3c(-c3ccn(C4(CC#N)CN(CC(F)(F)F)C4)n3)n2)cn1` [Example 177, [3-{3-[7-(6-methylpyridin-3-yl)-1,6-naphthyridin-5-yl]-1H-pyrazol-1-yl}-1-(2,2,2-trifluoroethyl)azetidin-3-yl]acetonitrile], the IC50 at TYK2 is 58 nM; on JAK3, above 10000 nM; on JAK1 it was 2610 nM; on JAK2 it was 794 nM.
On the same counts, the results for `N#CCC1(n2ccc(-c3nc(-c4cncc(F)c4)cc4ncccc34)n2)CN(CC(F)(F)F)C1` [Example 178, [3-{3-[7-(5-fluoropyridin-3-yl)-1,6-naphthyridin-5-yl]-1H-pyrazol-1-yl}-1-(2,2,2-trifluoroethyl)azetidin-3-yl]acetonitrile] are 1370 nM, above 10000 nM, above 10000 nM and 6780 nM.
For `N#CCC1(n2ccc(-c3nc(-c4ccncc4F)cc4ncccc34)n2)CN(CC(F)(F)F)C1` [Example 179, [3-{3-[7-(3-fluoropyridin-4-yl)-1,6-naphthyridin-5-yl]-1H-pyrazol-1-yl}-1-(2,2,2-trifluoroethyl)azetidin-3-yl]acetonitrile], the concentration for half-maximal inhibition (IC50) was 285 nM on TYK2, above 10000 nM on JAK3, above 10000 nM at JAK1 and 9670 nM on JAK2.
Regarding `N#CC[C@]1(n2ccc(-c3nc(-c4cccc(O)n4)cc4ncccc34)n2)C[C@@H](C#N)C1` [Example 181, cis-3-(cyanomethyl)-3-{3-[7-(6-hydroxypyridin-2-yl)-1,6-naphthyridin-5-yl]-1H-pyrazol-1-yl}cyclobutanecarbonitrile], the IC50 is 40 nM at TYK2, above 10000 nM on JAK3, 853 nM at JAK1 and 123 nM on JAK2.
For `N#CC[C@]1(n2ccc(-c3nc(-c4cccc(O)n4)cc4ncccc34)n2)C[C@H](C#N)C1` [Example 182, trans-3-(cyanomethyl)-3-{3-[7-(6-hydroxypyridin-2-yl)-1,6-naphthyridin-5-yl]-1H-pyrazol-1-yl}cyclobutanecarbonitrile], the concentration for half-maximal inhibition (IC50) on TYK2 was 53 nM; at JAK3 it was above 10000 nM; at JAK1, 2020 nM; at JAK2 it was 224 nM.
As to `N#CCC1(n2ccc(-c3nc(-c4ccc(O)nc4)cc4ncccc34)n2)CN(CC(F)(F)F)C1` [Example 183, [3-{3-[7-(6-hydroxypyridin-3-yl)-1,6-naphthyridin-5-yl]-1H-pyrazol-1-yl}-1-(2,2,2-trifluoroethyl)azetidin-3-yl]acetonitrile], the half-inhibitory concentration (IC50) is 21 nM at TYK2, above 10000 nM on JAK3, 384 nM at JAK1 and 397 nM on JAK2.
Regarding `CCN1CC(CC#N)(n2ccc(-c3nc(-c4ccc(O)nc4)cc4ncccc34)n2)C1` [Example 184], the 50% inhibitory concentration (IC50) was 221 nM at TYK2, above 10000 nM on JAK3, 4030 nM on JAK1 and 4030 nM on JAK2.
Turning to `N#CCC1(n2ccc(-c3nc(-c4ccc(O)nc4)cc4ncccc34)n2)CN(C2CC(F)(F)C2)C1` [Example 185, [1-(3,3-difluorocyclobutyl)-3-{3-[7-(6-hydroxypyridin-3-yl)-1,6-naphthyridin-5-yl]-1H-pyrazol-1-yl}azetidin-3-yl]acetonitrile], the IC50 is 88 nM on TYK2, above 10000 nM on JAK3, 2030 nM at JAK1 and 2070 nM on JAK2.
Regarding `COc1ncccc1-c1cc2ncccc2c(-c2ccn(C3(CC#N)CN(S(C)(=O)=O)C3)n2)n1` [Example 187, [3-{3-[7-(2-methoxypyridin-3-yl)-1,6-naphthyridin-5-yl]-1H-pyrazol-1-yl}-1-(methylsulfonyl)azetidin-3-yl]acetonitrile], the IC50 was 781 nM on TYK2, above 10000 nM on JAK3, above 10000 nM at JAK1 and above 10000 nM on JAK2.
For the compound `COc1ccc(-c2cc3ncccc3c(-c3ccn(C4(CC#N)CN(CC(F)(F)F)C4)n3)n2)cn1` [Example 188, [3-{3-[7-(6-methoxypyridin-3-yl)-1,6-naphthyridin-5-yl]-1H-pyrazol-1-yl}-1-(2,2,2-trifluoroethyl)azetidin-3-yl]acetonitrile], the IC50 was 80 nM at TYK2, above 10000 nM on JAK3, 2720 nM at JAK1 and 902 nM on JAK2.
For `COc1cc(-c2cc3ncccc3c(-c3ccn(C4(CC#N)CN(S(C)(=O)=O)C4)n3)n2)ccn1` [Example 189], the concentration for half-maximal inhibition (IC50) on TYK2 was 84 nM; on JAK3, above 10000 nM; at JAK1, 8340 nM; at JAK2 it was 725 nM.
For the compound `N#CC[C@]1(n2ccc(-c3nc(-c4ccc(N)cn4)cc4ncccc34)n2)C[C@@H](C#N)C1` [Example 190, cis-3-{3-[7-(5-aminopyridin-2-yl)-1,6-naphthyridin-5-yl]-1H-pyrazol-1-yl}-3-(cyanomethyl)cyclobutanecarbonitrile], the half-inhibitory concentration (IC50) at TYK2 is 55 nM; at JAK3, above 10000 nM; on JAK1 it was 1310 nM; at JAK2, 596 nM.
For `CS(=O)(=O)N1CC(CC#N)(n2ccc(-c3nc(-c4cccnc4N)cc4ncccc34)n2)C1` [Example 191] the same measures were 75 nM, above 10000 nM, 5060 nM and 931 nM.
On the same counts, the results for `N#CCC1(n2ccc(-c3nc(-c4ccc(N)nc4)cc4ncccc34)n2)CN(CC(F)(F)F)C1` [Example 192] are 68 nM, above 10000 nM, 951 nM and 841 nM.
For `CS(=O)(=O)N1CC(CC#N)(n2ccc(-c3nc(-c4cncc(N)c4)cc4ncccc34)n2)C1` [Example 193], the half-maximal inhibitory concentration (IC50) was 147 nM on TYK2, above 10000 nM on JAK3, 5570 nM on JAK1 and 1680 nM at JAK2.
`CS(=O)(=O)N1CC(CC#N)(n2ccc(-c3nc(-c4ccc(N)nc4)cc4ncccc34)n2)C1` [Example 194]: the IC50 at TYK2 was 45 nM; at JAK3 it was above 10000 nM; on JAK1, 843 nM; on JAK2, 436 nM.
On the same counts, the results for `N#CC[C@]1(n2ccc(-c3nc(-c4ccc(N)nc4)cc4ncccc34)n2)C[C@@H](C#N)C1` [Example 195, cis-3-{3-[7-(6-aminopyridin-3-yl)-1,6-naphthyridin-5-yl]-1H-pyrazol-1-yl}-3-(cyanomethyl)cyclobutanecarbonitrile] are 9 nM, 2060 nM, 50 nM and 31 nM.
With `N#CC[C@]1(n2ccc(-c3nc(-c4ccc(N)nc4)cc4ncccc34)n2)C[C@H](C#N)C1` [Example 196, trans-3-{3-[7-(6-aminopyridin-3-yl)-1,6-naphthyridin-5-yl]-1H-pyrazol-1-yl}-3-(cyanomethyl)cyclobutanecarbonitrile], the IC50 on TYK2 is 45 nM; on JAK3, above 10000 nM; on JAK1, 488 nM; at JAK2, 233 nM.
On the same counts, the results for `N#CCC1(n2ccc(-c3nc(-c4ccnc(N)c4)cc4ncccc34)n2)CN(CC(F)(F)F)C1` [Example 197] are 37 nM, above 10000 nM, 656 nM and 688 nM.
For `N#CC[C@]1(n2ccc(-c3nc(-c4ccnc(N)c4)cc4ncccc34)n2)C[C@@H](C#N)C1` [Example 198, cis-3-{3-[7-(2-aminopyridin-4-yl)-1,6-naphthyridin-5-yl]-1H-pyrazol-1-yl}-3-(cyanomethyl)cyclobutanecarbonitrile] the same measures were 7 nM, 1930 nM, 39 nM and 32 nM.
Regarding `N#CCC1(n2ccc(-c3nc(-c4ccnc(N)c4)cc4ncccc34)n2)CC(C#N)C1` (stereo not drawn) [Example 199, trans-3-{3-[7-(2-aminopyridin-4-yl)-1,6-naphthyridin-5-yl]-1H-pyrazol-1-yl}-3-(cyanomethyl)cyclobutanecarbonitrile], the IC50 at TYK2 was 20 nM; on JAK3 it was above 10000 nM; at JAK1 it was 337 nM; at JAK2, 199 nM.
Turning to `C[C@]1(C#N)C[C@](CC#N)(n2ccc(-c3nc(-c4ccnc(N)c4)cc4ncccc34)n2)C1` [Example 200, trans-3-{3-[7-(2-aminopyridin-4-yl)-1,6-naphthyridin-5-yl]-1H-pyrazol-1-yl}-3-(cyanomethyl)-1-methylcyclobutanecarbonitrile], the half-inhibitory concentration (IC50) at TYK2 is 573 nM; at JAK3 it was above 10000 nM; at JAK1, 3220 nM; at JAK2, 2970 nM.
